# Measurements: PubChem BioAssay AID2060505 (Molecular Pharmacology Branch, DTP, NCI, 2025)
# pIC50: −log10 of the molar value.
# Tested on: 633275-114-R-J1-PDC complex spheroids, viability
# Test: Anticancer human tumor 633275-114-R-J1-PDC patient-derived endometrial adenocarcinoma cell line growth inhibition [GQUAD]
# Conditions: for pIC50: curve of first compound; for viability, T/C: stronger effect = lower value
# Excerpt: DNA G-quadruplex Stabilizer Agents in Combinations in Complex Spheroids
# A high-throughput screen of multi-cell type tumor spheroids was designed to identify active combinations of DNA G-quadruplex stabilizer agents and targeted small molecules. Complex spheroids include a stromal component modeled by human endothelial cells (HUVEC) and fibroblasts modeled by human mesenchymal stem cells (MSCs). The concentration ranges selected for each drug and investigational agent were based upon clinically achievable concentrations if the clinical Cmax of the agent was known.
# Compounds. The drugs and investigational agents: pidnarulex (CX-5461; NSC782164), APTO-253 (NSC789042), BRACO-19 (NSC847499), peposertib (NSC802822), ceralasertib (NSC780249), elimusertib (NSC800525), camonsertib (NSC841442), AZD-1390 (NSC803789), olaparib (NSC753686), talazoparib (NSC767125), ART-558 (NSC835418), sotorasib (NSC818433), MRTX-1133 (NSC836407), SN-38 (NSC673596), topotecan (NSC609699), etoposide (NSC141540), doxorubicin (NSC123127), gemcitabine (NSC613327), 5-fluorouracil (NSC19893), paclitaxel (NSC125973), vemurafenib (NSC761431), panobinostat (NSC761190), R-306465 (JNJ-16241199; NSC773264), adavosertib (NSC754352), TP-3654 (NSC805149), carboplatin (NSC241240), KSQ-4279 (NSC840948), and staurosporine (NSC755774) were obtained from the National Cancer Institute (NCI) Developmental Therapeutics Program Chemical Repository (34). The FDA-approved anticancer drug set is available from the NCI Developmental Therapeutics Program. […] The stock solutions were prepared in dimethyl sulfoxide (DMSO, Sigma-Aldrich, St. Louis, MO, cat. D2650) at 800-fold the tested concentration and stored at -70 degrees C prior to their use. All drugs and investigational agents were tested over a range starting from a high concentration at or near the clinical Cmax and decreasing in half-log increments. If the clinical Cmax for an agent had not been determined, the highest concentration tested was 10 microM.
# 2.3 Cell Culture. All cells were maintained in an incubator at 37 degrees C and 5% CO2 with 95% humidity. The PDC lines were cultured according to standard operating procedures established by the NCI PDMR. All PDCs were thawed and cultured in Matrigel-coated flasks prepared with a working solution of 1X Ham's F-12 nutrient mix, without supplementation (Invitrogen, cat. 11765054), 100 U/mL penicillin-streptomycin (Invitrogen, cat. 15140122), and 2.5% Matrigel (Corning Inc., cat. 354248) for the first three passages. The 857933-349-R-J2-PDC line was cultured in 6C/Colon 1B media, which includes advanced DMEM/F-12 (Thermo Fisher Scientific, cat. 12634028), 10 mM HEPES (Thermo Fisher Scientific, cat. 15630080), 1X GlutaMAX supplement (Thermo Fisher Scientific, cat. 35050061), 0.1 mg/mL primocin (InvivoGen, cat. ant-pm-2), 10% defined fetal bovine serum, heat inactivated (HyClone Laboratories Inc., cat. SH30070.03HI), 50% L-WRN conditioned media (ATCC, cat. CRL-3276), 1.25 mM N-Acetyl-L-cysteine (Sigma-Aldrich, cat. A9165), 10 mM nicotinamide (Sigma-Aldrich, cat. N0636), 1X B-27 supplement (Thermo Fisher Scientific, cat. 17504044), 1X N-2 supplement (Thermo Fisher Scientific, cat. 17502048), 10 microM Y-27632 dihydrochloride (Tocris Bioscience, cat. 1254), and 50 ng/mL human EGF recombinant protein (Thermo Fisher Scientific, cat. PHG0311). The 485176-168-R4-J1-PDC line was cultured in Panc media, which includes all 6C/Colon 1B media components plus 100 ng/mL human FGF-10 (Thermo Fisher Scientific, cat. 100-26), 500 nM SB-431542 (Selleckchem, cat. S1067), and gastrin (Tocris, cat. 3006).
# […]
# [1] = second compound 0.0316 µM, first compound 0.0316 µM
# [2] = second compound 0.0316 µM, first compound 0.316 µM
# [3] = second compound 0.1 µM, first compound 0.0316 µM
# [4] = second compound 0.1 µM, first compound 0.316 µM
# [5] = second compound 0.316 µM, first compound 0.0316 µM
# [6] = second compound 0.316 µM, first compound 0.316 µM
# [7] = second compound 1 µM, first compound 0.0316 µM
# [8] = second compound 1 µM, first compound 0.316 µM
# [9] = second compound 3.16 µM, first compound 0.0316 µM
# [10] = second compound 3.16 µM, first compound 0.316 µM
# [11] = second compound 10 µM, first compound 0.0316 µM
# [12] = second compound 10 µM, first compound 0.316 µM
# 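Also: spheroids exposed to the agents for seven days.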
# 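For viability, T/C in this document: percent of DMSO vehicle control viability which is 100%.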
smiles,measurement,setting,value
Cc1[nH]c2ccccc2c1CCNCc1ccc(/C=C/C(=O)NO)cc1 + CN(C)c1ccc(Nc2c3ccc(NC(=O)CCN4CCCC4)cc3nc3cc(NC(=O)CCN4CCCC4)ccc23)cc1,pIC50,second compound 0.0316 µM,7.08
same,pIC50,second compound 0.1 µM,7.26
same,pIC50,second compound 0.316 µM,7.26
same,pIC50,second compound 1 µM,7.32
same,pIC50,second compound 3.16 µM,7.61
same,pIC50,second compound 10 µM,> 9.00
same,"viability, T/C","second compound 0.0316 µM, first compound 0.000999 µM",97.4%
same,"viability, T/C","second compound 0.0316 µM, first compound 0.00316 µM",94.7%
same,"viability, T/C","second compound 0.0316 µM, first compound 0.00999 µM",84.9%
same,"viability, T/C",[1],59.6%
same,"viability, T/C","second compound 0.0316 µM, first compound 0.0999 µM",51.3%
same,"viability, T/C",[2],21.6%
same,"viability, T/C","second compound 0.1 µM, first compound 0.000999 µM",94.2%
same,"viability, T/C","second compound 0.1 µM, first compound 0.00316 µM",102%
same,"viability, T/C","second compound 0.1 µM, first compound 0.00999 µM",80.5%
same,"viability, T/C",[3],57.1%
same,"viability, T/C","second compound 0.1 µM, first compound 0.0999 µM",43%
same,"viability, T/C",[4],22%
same,"viability, T/C","second compound 0.316 µM, first compound 0.000999 µM",96.8%
same,"viability, T/C","second compound 0.316 µM, first compound 0.00316 µM",97.4%
same,"viability, T/C","second compound 0.316 µM, first compound 0.00999 µM",70.5%
same,"viability, T/C",[5],60.5%
same,"viability, T/C","second compound 0.316 µM, first compound 0.0999 µM",41.2%
same,"viability, T/C",[6],19.4%
same,"viability, T/C","second compound 1 µM, first compound 0.000999 µM",88%
same,"viability, T/C","second compound 1 µM, first compound 0.00316 µM",83.4%
same,"viability, T/C","second compound 1 µM, first compound 0.00999 µM",67.3%
same,"viability, T/C",[7],58.1%
same,"viability, T/C","second compound 1 µM, first compound 0.0999 µM",38.4%
same,"viability, T/C",[8],18.3%
same,"viability, T/C","second compound 3.16 µM, first compound 0.000999 µM",82.4%
same,"viability, T/C","second compound 3.16 µM, first compound 0.00316 µM",80.2%
same,"viability, T/C","second compound 3.16 µM, first compound 0.00999 µM",61.2%
same,"viability, T/C",[9],48.6%
same,"viability, T/C","second compound 3.16 µM, first compound 0.0999 µM",26.3%
same,"viability, T/C",[10],15.4%
same,"viability, T/C","second compound 10 µM, first compound 0.000999 µM",34.1%
same,"viability, T/C","second compound 10 µM, first compound 0.00316 µM",29.8%
same,"viability, T/C","second compound 10 µM, first compound 0.00999 µM",21%
same,"viability, T/C",[11],23.4%
same,"viability, T/C","second compound 10 µM, first compound 0.0999 µM",13.6%
same,"viability, T/C",[12],4.56%
Cc1cccc(N(C)C(=O)C2C(O)CCN2c2nc(C)cc(C(F)(F)F)c2C#N)c1 (centres undefined) + CN(C)c1ccc(Nc2c3ccc(NC(=O)CCN4CCCC4)cc3nc3cc(NC(=O)CCN4CCCC4)ccc23)cc1,pIC50,second compound 0.0316 µM,< 5.00
same,pIC50,second compound 0.1 µM,< 5.00
same,pIC50,second compound 0.316 µM,< 5.00
same,pIC50,second compound 1 µM,< 5.00
same,pIC50,second compound 3.16 µM,5.07
same,pIC50,second compound 10 µM,> 7.50
same,"viability, T/C",[1],102%
same,"viability, T/C","second compound 0.0316 µM, first compound 0.1 µM",99.2%
same,"viability, T/C",[2],105%
same,"viability, T/C","second compound 0.0316 µM, first compound 1 µM",105%
same,"viability, T/C","second compound 0.0316 µM, first compound 3.16 µM",96.3%
same,"viability, T/C","second compound 0.0316 µM, first compound 10 µM",104%
same,"viability, T/C",[3],107%
same,"viability, T/C","second compound 0.1 µM, first compound 0.1 µM",103%
same,"viability, T/C",[4],104%
same,"viability, T/C","second compound 0.1 µM, first compound 1 µM",99.5%
same,"viability, T/C","second compound 0.1 µM, first compound 3.16 µM",101%
same,"viability, T/C","second compound 0.1 µM, first compound 10 µM",97.8%
same,"viability, T/C",[5],99.3%
same,"viability, T/C","second compound 0.316 µM, first compound 0.1 µM",94.4%
same,"viability, T/C",[6],101%
same,"viability, T/C","second compound 0.316 µM, first compound 1 µM",91%
same,"viability, T/C","second compound 0.316 µM, first compound 3.16 µM",94%
same,"viability, T/C","second compound 0.316 µM, first compound 10 µM",85.3%
same,"viability, T/C",[7],96.2%
same,"viability, T/C","second compound 1 µM, first compound 0.1 µM",96.6%
same,"viability, T/C",[8],97.6%
same,"viability, T/C","second compound 1 µM, first compound 1 µM",99.5%
same,"viability, T/C","second compound 1 µM, first compound 3.16 µM",94.6%
same,"viability, T/C","second compound 1 µM, first compound 10 µM",87.1%
same,"viability, T/C",[9],88.8%
same,"viability, T/C","second compound 3.16 µM, first compound 0.1 µM",84.8%
same,"viability, T/C",[10],95.5%
same,"viability, T/C","second compound 3.16 µM, first compound 1 µM",82.4%
same,"viability, T/C","second compound 3.16 µM, first compound 3.16 µM",69.2%
same,"viability, T/C","second compound 3.16 µM, first compound 10 µM",47%
same,"viability, T/C",[11],30.5%
same,"viability, T/C","second compound 10 µM, first compound 0.1 µM",34.7%
same,"viability, T/C",[12],28%
same,"viability, T/C","second compound 10 µM, first compound 1 µM",29.6%
same,"viability, T/C","second compound 10 µM, first compound 3.16 µM",28.2%
same,"viability, T/C","second compound 10 µM, first compound 10 µM",16.1%
